Results reported in patent US12630502B2, “Compounds, compositions and polymer films” (Fujifilm Manufacturing Europe B.V., priority 2020, dated 2026).
Where a name gives a salt, the structure may show the parent alone.

Test: Solubility in water at 40° C. (visual or UV-spectrometry)
Assay type: physicochemical
Settings: kept overnight, 500 ppm 4OH-TEMPO
Procedure: The solubility of the compounds of Formula (I) was determined visually or by UV-spectrometry. For each compound of Formula (I), three solutions were prepared at 40° C.: one solution at 30 wt %, one solution at 60 wt %, and one solution at 70 wt %. 500 ppm 4OH-TEMPO was included in all three solutions to prevent premature polymerisation. The solutions were kept in a water bath of 40° C. overnight and centrifuged prior inspection. UV spectra were recorded in a Cary™ 100 UV-visible spectrophotometer from Agilent Technologies using a 1 mm path length quartz cuvette.

Row | Solubility in water at 40° C. | Molecule
1 | >70 wt % | C=Cc1ccc(S(=O)(=O)[N-]S(=O)(=O)c2cccc(S(=O)(=O)[N-]S(=O)(=O)c3ccc(C=C)cc3)c2)cc1.[Li+].[Li+] [XL-2, 1,3-[N-(ethenylphenylsulphonyl)benzenesulphonamide], dilithium salt]
2 | 56 wt % | C=Cc1ccc(S(=O)(=O)NS(=O)(=O)c2ccc(C=C)cc2)cc1 [XL-B, Benzenesulphonamide, 4-ethenyl-N-[(4-ethenylphenyl)sulphonyl]-, lithium salt]
3 | >70 wt % | C=Cc1ccc(S(=O)(=O)NS(C)(=O)=O)c(C=C)c1 [XL-D, Benzenesulphonamide, 2,4-diethenyl-N-(methylsulphonyl)-, lithium salt]

Row | Molecule | Solubility in water at 40° C.
4 | Divinylbenzenesulphonate, Sodium salt [DVBS-Na, reference compound] | 8 wt %
